The record followed here is ChEMBL document CHEMBL3425403, “De novo design of caseinolytic protein proteases inhibitors based on pharmacophore and 2D molecular fingerprints” (Bioorg Med Chem Lett, 2015).

Each structure is given as a SMILES string.

This test deals with Staphylococcus aureus. In words: Inhibition of Staphylococcus aureus caseinolytic protein protease using fluorogenic substrate assessed as residual activity at 10 uM after 15 mins.
On to `CCCCCCCCCC[C@H]1C(=O)O[C@@H]1CCS(=O)(=O)CCCN(C)C`, for which the Activity was determined as 37%. With `CCCCCCCCCC[C@H]1C(=O)O[C@@H]1CCSCCCN(C)C`, the Activity was found to be 11%. In the case of `CCCCCCCCCC[C@@H]1C(=O)O[C@H]1CCCCCS(=O)(=O)CCCN(C)C` it was 5%; in that of `CCCCCCCCCC[C@@H]1C(=O)O[C@H]1CCCCSCCCN(C)C`, 0%; in that of `CCCCCCCCCC[C@H]1C(=O)O[C@@H]1CCCS(=O)(=O)CCC[N+](C)(C)C`, 7%. Next, `CCCCCCCCCC[C@@H]1C(=O)O[C@H]1CCCCCS(=O)(=O)CCC[N+](C)(C)C`: 1%; `C#CCCC[C@@H]1OC(=O)[C@H]1CCCCCCCCCCCC`: 95%.

Turning to `CCCCCCCCCC[C@@H]1C(=O)O[C@H]1CCSCCCN(C)C`, the Activity worked out at 1%.

As for `O=C1OC[C@@H]1CCc1ccccc1`, the Activity worked out at 108%. In the case of `CCCCCCCCCC[C@@H]1C(=O)O[C@H]1CCCCS(=O)(=O)CCC[N+](C)(C)C` it was 36%; in that of `CCCCCCCCCC[C@H]1C(=O)O[C@@H]1CCCCCS(=O)(=O)CCCN(C)C`, 10%; in that of `O=C1OC[C@H]1CCc1ccccc1`, 108%. `C=CCCCCCCC[C@H]1C(=O)O[C@@H]1CCc1cccnc1`: the Activity turned out to be 0%. As to `CCCCCCCCCC[C@H]1C(=O)O[C@@H]1CCCCS(=O)(=O)CCCN(C)C`, the Activity turned out to be 13%.

For the compound `C=CCCCCCCCCC(=O)OC(C)(C)C`, the Activity was 103%. Next, `CCCCCCCCCC[C@@H]1C(=O)O[C@H]1CCS(=O)(=O)CCCN(C)C`: 1%; `CCCCCCCCCCCC[C@H]1C(=O)O[C@@H]1CCc1ccccc1`: 95%. Next, `CCCCCCCCCC[C@@H]1C(=O)O[C@H]1CCCSCCCN(C)C`: 40%; `C=CCCCCCCC[C@H]1C(=O)O[C@@H]1CCCCCCCCCCCNC(=O)OC(C)(C)C`: 105%; `CCCCCCCCCC[C@@H]1C(=O)O[C@H]1CCCCCSCCCN(C)C`: 1%. Next, `C=CCCCCCCCCC(=O)OC`: 96%; `CCCCCCCCCC[C@@H]1C(=O)O[C@H]1CCCCS(=O)(=O)CCCN(C)C`: 0%; `C#CCCCOC(=O)NCCCCCCCC=C`: 101%. For the compound `CCCCCCCCCC[C@@H]1C(=O)O[C@H]1CCCS(=O)(=O)CCC[N+](C)(C)C`, the Activity was 0%. In the case of `C=CCCCCCCC[C@H]1C(=O)O[C@@H]1CCCCCNC(=O)c1ccc(N(C)C)cc1` it was 30%; in that of `CCCCCCCCCC[C@H]1C(=O)O[C@@H]1CCCS(=O)(=O)CCCN(C)C`, 8%; in that of `C=CCCCCCCCC[C@H]1OC(=O)[C@@H]1CCCCCCCCCNC(=O)OC(C)(C)C`, 95%. Consider `CCCCCCCCCC[C@H]1C(=O)O[C@@H]1CCCCS(=O)(=O)CCC[N+](C)(C)C`, for which the Activity stood at 9%. In the case of `C=CCCCCCCC[C@H]1C(=O)O[C@@H]1CCc1ccccc1` it was 70%; in that of `CCCCCCCCCC[C@@H]1C(=O)O[C@H]1CCCS(=O)(=O)CCCN(C)C`, 0%.

On to `C#CCCCOC(=O)NCCCCC`, for which the Activity was 100%. Next, `CCCCCCCCCC[C@H]1C(=O)O[C@@H]1CCCCCS(=O)(=O)CCC[N+](C)(C)C`: 9%.
